Experimental data reported in US6881825B1, “Identication of peptides that facilitate uptake and cytoplasmic and/or nuclear transport of proteins, DNA and virues” (University of Pittsburgh of The Commonwealth System of …, priority 1999, dated 2005).
“Also recorded” adds a separate entry of the source. Where no end group is shown, it is not given here.

What was measured:
[1] = system: Hig-82 cells; assay: Peptide-β-gal complex internalization, X-gal staining; assay type: cell-based, rabbit; settings: for transduction/transfer activity of the peptide (in words): as summarised with CD spectra and competition data; for relative strength of internalization of β-gal (concentration needed): FIG. 1B, various concentrations of peptide linked to β-gal, 1:1=150 nM of β-gal
Protocol: (§1) Internalizing peptides 1-6 (SEQ ID Nos:1-6 respectively), which were identified as described above in Example 3, were synthesized, and biotinylated (synthesis and biotinylation performed by the Biotech Center of the University of Pittsburgh). The biotinylated peptides were then conjugated to avidin β-gal or avidin Cy3 at room temperature for 2 hours.
(§2) The peptide conjugates were then added to cells (Hig-82 cells, rabbit synovial cells, human synovial cells, rabbit synovial lining, human primary airway cells HBE 144, human primary islet cells, murine myoblast cells C2C12, dog kidney epithelial cells MDCK, murine fibroblast cells NIH3T3 and murine tumor cells MCA 205 (human synovial cells and human primary airway cells (HBE144) were isolated from patients from the Presbyterian Hospital, University of Pittsburgh by standard techniques for establishing a primary cell culture; human islet cells were provided by the University of Miami and were isolated by standard techniques for establishing a primary cell culture; C2C12, MDCK, 3T3 and MCA205 cells were purchased from ATTC, Bethesda, Md.; all cells were cultured in DMEM and grown to 100% confluency) and incubated while gently rotating at 37° C. for 3 hours with TBS buffer. The cells were then washed 10 times with TBS buffer and fixed with 4% paraformaldehyde at room temperature for 30 minutes. Cells were then washed 3 times with TBS buffer and stained with 1 mg/ml X-gal (Bochringer Mannheim, Indianapolis) at 37° C. overnight for β-gal-conjugated peptides. Cells which were blue indicated the presence of β-gal in the cells. For Cy3-conjugated peptides, fluorescence of the cells as measured by confocal microscopy indicated the ability of the peptide to internalize the Cy3 (a small molecule cargo).
TAT-PTD (YGRKKRRQRRR; SEQ ID NO:21), and a random control peptide (ARPILEHGSDKAT; SEQ ID NO:20). […] In FIG. 1B, various concentrations of peptides linked to β-gal were tested (1:1=150 nM of β-gal).

[2] = system: rabbit synovial lining; assay: In vivo transfer of peptide-conjugated β-gal after injection into rabbit knee; settings: for level of uptake of β-gal into rabbit synovial lining: FIG. 4A, injection into rabbit knee, compared with adenoviral vector encoding β-gal
Protocol: Peptide-β-gal complexes (fusions) were injected into rabbit knee synovial lining, the lining as then removed, washed with wash buffer, fixed with 4% paraformaldehyde, and stained with β-gal.
(§3) Peptide 5 (SEQ ID NO:5) was able to facilitate uptake of β-gal in nearly 100% of the synovial cells in vivo (FIG. 4B).

[3] = system: rabbit synovial fibroblasts; assay: Internalization of Cy3-labeled peptide/M13 phage complex; assay type: cell-based; settings: FIG. 13D vs control phage
From the text: Therefore, the peptides of the present invention are useful for facilitating the internalization of virus and viral vectors.

[4] = system: human synovial cells; assay: Peptide-β-gal internalization, X-gal staining; assay type: cell-based; settings: human (primary) synovial cells; FIG. 3, 6C
Protocol: as §1, §2

[5] = system: rabbit synovial cells; assay: Peptide-β-gal internalization, X-gal staining; assay type: cell-based; settings: rabbit (primary) synovial cells; FIG. 2, 6B
Protocol: as §1, §2

[6] = system: Hig-82 cells; assay: Peptide competition assay for internalization of peptide-conjugated β-gal; assay type: cell-based, rabbit; settings: for blocking of internalization of peptide-conjugated β-gal by non-biotinylated peptide: FIG. 5, conjugates of peptide 2, 3, 4 and 5, 3 hours at 37° C.
Protocol: A peptide competition assay was carried out to determine the relative efficiency and specificity of the various peptides. The peptides were conjugated to β-gal as described above in Example 4 and incubated with Hig-82 cells grown to 85% confluency in 24 well plates in the presence of non biotinylated peptides for 3 hours at 37° C. in TBS buffer while being gently rotated. The cells were then washed 10 times with TBS buffer, fixed with 4% paraformaldehyde at room temperature for 30 minutes, washed 3 times with TBS buffer, and stained with Xgal, as described above in Example 4, overnight. Cells which stained blue had internalized peptide-conjugated β-gal.

[7] = system: MCA 205 tumor cells; assay: Intra-tumoral injection of peptide-β-gal complex, X-gal staining of tumor; assay type: in vivo, mouse; settings: day 14 subcutaneous MCA-205 tumors, single intra-tumoral injection
Protocol: as §3
To make the nucleic acid encoding the peptide-eGFP fusion depicted in FIG. 9A, PCR was employed using 5′ and 3′ primers that encoded the peptide and a his tag, respectively, and had complimentary sequences to eGFP DNA coding sequences. […] MCA 205 tumor cells (5×10^5 cells) were injected subcutaneously into the flank of a C57/BL6 mouse. At day 14, a single intra-tumoral injection of the peptide β-gal complex was performed. The mice were sacrificed 3 hours post-injection and the tumor tissue was isolated, sectioned and stained with X-gal.

[8] = system: Hig-82 cells; assay: Internalization of peptide-streptavidin-488 complex, fluorescence and confocal microscopy; assay type: cell-based, rabbit
From the text: See Bayer et al., Histochem. Cytochem. 24:933-939 (1976); Ivanenkov & Menon, Biochim. Biophys. Acta. 1448:463-472 (1999). The use of the 488 flourescent marker allows for analysis of the treated cells by confocal microscopy to determine the exact location of the complexes in the cells.

[9] = system: HIG82 cells; assay: Cell viability by MTT assay (OD 570 nm); assay type: cell-based, rabbit; settings: HIG-82 cells; 100-3.1 μM peptide, three hours; FIG. 14, 15
Protocol: 2×10^5 cells (HIG82, MCA205 or Jurkatt) were seeded into 24 well plates. Forty-eight hours later, 100 μM, 50 μM, 25 μM, 6.25 μM and 3.1 μM of the either the death peptide (SEQ ID NO:24), peptide 5 alone (SEQ ID NO:5) or the apoptotic peptide alone (SEQ ID NO:23) was added to the cells. To check for cell viability, three hours later, the media was aspirated and 1 ml of scrum-free media containing 0.25 mg of MTT was added to each well and incubated for 4 hours at 37° C. MTT-containing media was then removed and 1 ml of absolute isopropanol containing 0.4N HCl was added. Photographs were taken of the plates, then the cells were harvested and any debris was centrifuged. OD as taken at λ=570 nm. Each sample point was performed in triplicate.

[10] = system: C2C12 murine myoblast cells; assay: Peptide-β-gal uptake, X-gal staining; assay type: cell-based; settings: FIG. 6G
Protocol: as §2
(§4) FIG. 9A is a schematic representation of the expression construct encoding the peptide5-eGFP fusion protein.

[11] = system: HBE 144 primary human airway epithelial cells; assay: Peptide-β-gal uptake, X-gal staining; assay type: cell-based; settings: FIG. 6D
Protocol: as §2, §4

[12] = system: MCA205 murine fibrosarcoma cells; assay: Peptide-β-gal uptake, X-gal staining; assay type: cell-based; settings: FIG. 6H
Protocol: as §2, §4

[13] = system: MDCK polarized canine kidney cells; assay: Peptide-β-gal uptake, X-gal staining; assay type: cell-based; settings: FIG. 6E
Protocol: as §2, §4

[14] = system: human β islet primary cells; assay: Peptide-β-gal uptake, X-gal staining; assay type: cell-based; settings: FIG. 6F
Protocol: as §2, §4

[15] = system: NIH3T3 cells; assay: Peptide-β-gal uptake, X-gal staining; assay type: cell-based, murine; settings: FIG. 6I
Protocol: as §2, with “Cells which were blue indicated the presence of β-gal in the cells.” left out, “cargo). […]” for “cargo).”

[16] = system: human islets; assay: Internalization of peptide5-eGFP fusion protein, fluorescence; assay type: cell-based; settings: peptide fused to eGFP; FIG. 9B-E
[17] = system: human dendritic cells; assay: as above; assay type: cell-based; settings: peptide fused to eGFP; FIG. 9F-G
[18] = system: CD34+/LIN− stem cells; assay: Transduction with biotin-peptide/avidin-β-gal complex; assay type: cell-based; settings: FIG. 17
From the text: Peptide 5 is biotin labeled and the β-gal is avidin labeled so that they may be linked together by an avidin/biotin interaction. The cells which stained dark were transduced with the peptide/β-gal complex as indicated by an arrow.

[19] = system: MCA205 tumors; assay: Growth of MCA205 fibrosarcomas under daily intra-tumoral injection; assay type: in vivo; settings: repeated administration
Protocol: To determine whether the death peptide could induce apoptosis in tumor cells and inhibit tumor growth in vivo, C57BL/6 mice bearing day 7 tumors in each […] (seeded with 1×10^5 MCA205 cells) were injected daily for 10 days with a 50 μl volume of 1 mM death peptide (SEQ ID NO:24; DP1) or the apoptotic peptide alone (SEQ ID NO:23; KLA) or a saline mock into both tumors. Five mice were used in each group. Tumor volume was estimated by multiplying maximum length×width^2. Separately, C57BL/6 with single, day 12 tumors were injected with 1 mM death peptide (SEQ ID NO:24; DP1), apoptotic peptide alone (SEQ ID NO:23; KLA) or saline for eleven days. Ten mice comprised each group. On the final day, the mice were injected with the appropriate saline or peptide solution and sacrificed 3 hours post-injection. Tumors were paraffin-embedded, sectioned, and stained for TUNEL and counterstained with methyl green or stained with hematoxylin and eosin to reveal histologic architecture.

[20] = FIG. 12, 100 fold excess of competitor

Row | Sequence | transduction/transfer activity of the peptide (in words) [1] | level of uptake of β-gal into rabbit synovial lining [2] | internalization of intact M13 phage (and nuclear localization of protein complexes) [3] | internalization of β-gal [5] | blocking of internalization of peptide-conjugated β-gal by non-biotinylated peptide [6] | β-gal staining / internalization in murine tumors in vivo [7] | further results
1 | ARPILEHGSDKAT (ARPLEHGSDKAT; random peptide library) [reference compound] | does not have activity | no uptake | – | – | – | – | –
2 | KRIHPRLTRSIR (random peptide library) [peptide 2] | intermediate activity | – | able to facilitate internalization and nuclear localization of protein complexes as well as intact M13 phage | – | – | – | –
3 | KRIIQRILSRNS (random peptide library) [peptide 1] | lower activity | – | – | facilitate the internalization of β-gal into rabbit synovial cells | did not block the internalization by any of the peptides | – | internalization of β-gal [4]: facilitate the internalization of β-gal into human synovial cells
4 | MHKRPTTPSRKM (random peptide library) [peptide 6] | only weakly able to transduce cells | – | – | – | – | – | transduction/transfer activity of the peptide (in words) ([1]; listed as SEQ ID NO:6): lower activity; inhibition of uptake of peptide 2 and 3 ([6]; FIG. 12): able to inhibit
5 | PIRRRKKLRRLK (random peptide library) [peptide 4] | highly active | highest level of uptake | able to facilitate internalization and nuclear localization of protein complexes as well as intact M13 phage | – | blocked the internalization of peptide 2 through peptide 6-conjugated β-gal | – | –
6 | PPRLRKRRQLNM (random peptide library) [peptide 3] | intermediate activity | – | able to facilitate internalization and nuclear localization of protein complexes as well as intact M13 phage | facilitate the internalization of β-gal into rabbit synovial cells | – | facilitate the internalization of β-gal into murine tumor cells in vivo | relative strength of internalization of β-gal (concentration needed) [1]: achieved internalization of β-gal at a slightly higher concentration
7 | RQIKIWFQNRRMKWKK (antennepedia) [antennapedia peptide, reference compound] | – | – | – | – | – | facilitate the internalization of β-gal into murine tumor cells in vivo | –
8 | RRQRRTSKLMKR (random peptide library) [peptide 5] | highly active | highest level of uptake | detected in the treated cells | facilitate the uptake of β-gal | blocked the internalization of peptide 2 through peptide 6-conjugated β-gal | significant β-gal staining; also recorded: facilitate the internalization of β-gal into murine tumor cells in vivo | relative strength of internalization of β-gal (concentration needed) [1]: effect internalization of β-gal linked thereto at a concentration equal to or less than TAT-PTD; uptake of β-gal ([1]; FIG. 6A, HIG-82 cells): facilitate the uptake of β-gal; internalization of β-gal [4]: facilitate the internalization of β-gal into human synovial cells; also recorded: facilitate the uptake of β-gal; synovial cells with uptake of β-gal in vivo ([2]; FIG. 4B, histology, eosin counter-stain): ~100%; internalization of streptavidin-488 complex ([8]; FIG. 13A, biotinylated peptide coupled to streptavidin-488): efficient internalization; nuclear localization of peptide-streptavidin-488 complex ([8]; FIG. 13B, confocal microscopy): significant percentage of the peptide-streptavidin-488 complex being found in the nucleus; inhibition of uptake of TAT-PTD and peptide 5 itself [6, 20]: significantly inhibit; inhibition of uptake of peptides 3, 4 and antennapedia peptide [6, 20]: completely inhibit; cell viability (MTT, OD570) [9]: did not impair viability; uptake of β-gal [10]: facilitate the uptake of β-gal; uptake of β-gal [11]: facilitate the uptake of β-gal; uptake of β-gal [12]: facilitate the uptake of β-gal; uptake of β-gal [13]: facilitate the uptake of β-gal; uptake of β-gal [14]: facilitate the uptake of β-gal; uptake of β-gal [15]: facilitate the uptake of β-gal; internalization of eGFP [16]: facilitate internalization of eGFP in human islets; internalization of eGFP [17]: facilitate the internalization of EGFP in human dendritic cells; transduction of stem cells with β-gal [18]: transduce CD34+/LIN− stem cells
9 | RRQRRTSKLMKRGGKLAKLAKKLAKLAK [death peptide] | – | – | – | – | – | – | side-effects in treated mice [19]: no obvious side-effects
10 | YGRKKRRQRRR (human) [TAT-PTD, reference compound] | – | highest level of uptake | – | – | – | – | –
